How the values were obtained:
[1] = tested on: tonic hind limb extensor convulsion from a single electroshock; assay: mini-MEST: maximal electroshock seizure threshold test using minimal sample sizes (n=6/group, log-scale current steps); details: for % change from vehicle / CC50 ± SEM: N=6
Source text: (§1) All animals were weighed at the beginning of the study and assigned to treatment groups (n=6/group) based on a mean distribution of body weight across groups.
(§2) The first animal within a treatment group was given a shock at the expected or estimated CC50 current. For subsequent animals, the current was lowered or raised depending on the convulsion outcome from the preceding animal in log scale intervals. Data generated from each treatment group were used to calculate the CC50±SEM values for the treatment group (see Table 5 for details).
as §1
as §2, with “Table 10” for “Table 5”
as §1
as §2, with “Table 15” for “Table 5”

[2] = tested on: tonic hind limb extensor convulsion from a single electroshock; mouse model of generalised seizure; assay: standard maximal electroshock seizure threshold (MEST) test (n=12/group, 5 mA intervals); details: Example 4, 30 min post dose; for CC50 +/− SEM: vehicle CC50 24.3
Procedure: The efficacy of Compound 3 was tested in a mouse model of generalised seizure, the maximal electroshock seizure threshold (MEST) test.
All animals were weighed at the beginning of the study and randomly assigned to treatment groups (n=12/group) based on a mean distribution of body weight across groups.
The first animal within a treatment group was given a shock at the expected or
estimated CC50 current. For subsequent animals, the current was lowered or raised depending on the convulsions outcome from the preceding animal in 5 mA intervals.
Data generated from each treatment group were used to calculate the CC50±SEM values for the treatment group.
Test compound effects were also calculated as percentage change in CC50 from the vehicle control group.
Significant difference between drug-treated animals and controls were assessed according to Litchfield and Wilcoxon (1949).

C=C(C)[C@@H]1CCC(C)=C[C@H]1c1c(O)cc(-c2cn(C)nn2)cc1O [Compound 2]
% change from vehicle ([1]; Example 2, 5 mg/kg i.p., 15 min post dose): 26%
CC50 ± SEM ([1]; Example 2, 5 mg/kg i.p., 15 min post dose, vehicle CC50 22.5): 28.3 +/− 1.1 mA
% change from vehicle ([1]; Example 2, 50 mg/kg i.p., 30 min post dose): 213%
CC50 ± SEM ([1]; Example 2, 50 mg/kg i.p., 30 min post dose, vehicle CC50 22.5): 70.5 +/− 5.8 mA

C=C(C)[C@@H]1CCC(C)=C[C@H]1c1c(O)cc(-c2cnn(CC(C)(C)C)c2)cc1O [Compound 1]
% change from vehicle ([1]; Example 1, 50 mg/kg i.p., 30 min post dose): 388%
CC50 ± SEM ([1]; Example 1, 50 mg/kg i.p., 30 min post dose, vehicle CC50 24.5): 119.5 mA

CN1C(=O)CN=C(c2ccccc2)c2cc(Cl)ccc21 [Diazepam, diazepam, reference compound]
% change from vehicle ([2]; 2.5 mg/kg i.p., N=11): 223%
% change from vehicle ([1]; Example 1, 2.5 mg/kg i.p., 30 min post dose): 206%
% change from vehicle ([1]; Example 2, 2.5 mg/kg i.p., 30 min post dose): 296%
% change from vehicle ([1]; Example 3, 2.5 mg/kg i.p., 30 min post dose): 98%

C=C(C)[C@@H]1CCC(C)=C[C@H]1c1c(O)cc(-c2cnn(C)c2)cc1O [Compound 3]
% change from vehicle ([2]; 2 mg/kg i.p., N=12): 27%
CC50 +/− SEM ([2]; 2 mg/kg i.p., N=12): 30.8 ± 1.0 mA
% change from vehicle ([2]; 20 mg/kg i.p., N=12): 116%
CC50 +/− SEM ([2]; 20 mg/kg i.p., N=12): 52.5 ± 1.3 mA
% change from vehicle ([2]; 200 mg/kg i.p., N=12): 712%
CC50 +/− SEM ([2]; 200 mg/kg i.p., N=12): 197.5 ± 20.4 mA
effect on MEST across doses (in words) ([2]; 2, 20 and 200 mg/kg i.p.): dose-related increase in MEST
% change from vehicle ([1]; Example 3, 200 mg/kg i.p., 120 min post dose): >636%
CC50 ± SEM ([1]; Example 3, 200 mg/kg i.p., 120 min post dose, no "+" seen, vehicle CC50 23.5): >173 mA
seizure threshold as compared to vehicle (in words) ([1]; Example 3, 200 mg/kg i.p., 120 mins before testing): clear increase in seizure threshold
